System: 598228-144-R-J1-PDC complex spheroid viability
Test: Anticancer human tumor 598228-144-R-J1-PDC patient-derived serous endometrial adenocarcinoma cell line growth inhibition [GQUAD]
Settings: for IC50: curve of first compound; for viability, T/C: stronger effect = lower value; active = viability on the fitted dose curve at most 10% of control; inactive = the rest
Method in brief: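 Multi-cell-type spheroids of tumor cells with HUVEC and mesenchymal stem cells, treated with drug combinations. Concentrations descend in half-log steps from near clinical Cmax, or from 10 microM where Cmax is unknown; viability read-out.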

[1] = second compound 0.0316 µM, first compound 0.0316 µM
[2] = second compound 0.0316 µM, first compound 0.1 µM
[3] = second compound 0.0316 µM, first compound 0.316 µM
[4] = second compound 0.0316 µM, first compound 1 µM
[5] = second compound 0.0316 µM, first compound 3.16 µM
[6] = second compound 0.0316 µM, first compound 10 µM
[7] = second compound 0.1 µM, first compound 0.0316 µM
[8] = second compound 0.1 µM, first compound 0.1 µM
[9] = second compound 0.1 µM, first compound 0.316 µM
[10] = second compound 0.1 µM, first compound 1 µM
[11] = second compound 0.1 µM, first compound 3.16 µM
[12] = second compound 0.1 µM, first compound 10 µM
[13] = second compound 0.316 µM, first compound 0.0316 µM
[14] = second compound 0.316 µM, first compound 0.1 µM
[15] = second compound 0.316 µM, first compound 0.316 µM
[16] = second compound 0.316 µM, first compound 1 µM
[17] = second compound 0.316 µM, first compound 3.16 µM
[18] = second compound 0.316 µM, first compound 10 µM
[19] = second compound 1 µM, first compound 0.0316 µM
[20] = second compound 1 µM, first compound 0.1 µM
[21] = second compound 1 µM, first compound 0.316 µM
[22] = second compound 1 µM, first compound 1 µM
[23] = second compound 1 µM, first compound 3.16 µM
[24] = second compound 1 µM, first compound 10 µM
[25] = second compound 3.16 µM, first compound 0.0316 µM
[26] = second compound 3.16 µM, first compound 0.1 µM
[27] = second compound 3.16 µM, first compound 0.316 µM
[28] = second compound 3.16 µM, first compound 1 µM
[29] = second compound 3.16 µM, first compound 3.16 µM
[30] = second compound 3.16 µM, first compound 10 µM
[31] = second compound 10 µM, first compound 0.0316 µM
[32] = second compound 10 µM, first compound 0.1 µM
[33] = second compound 10 µM, first compound 0.316 µM
[34] = second compound 10 µM, first compound 1 µM
[35] = second compound 10 µM, first compound 3.16 µM
[36] = second compound 10 µM, first compound 10 µM
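Also: spheroids exposed to the agents for one week before reading.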
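For viability, T/C in this document: percent of vehicle DMSO control viability so 100% = untreated growth.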

CCCS(=O)(=O)Nc1ccc(F)c(C(=O)c2c[nH]c3ncc(-c4ccc(Cl)cc4)cc23)c1F + Cc1[nH]c2ccc(F)cc2c1-c1nc2c3cccnc3c3ncccc3c2[nH]1
< 31.6 nM: IC50 (second compound 3.16 µM)
8720 nM: IC50 (second compound 0.1 µM)
8500 nM: IC50 (second compound 0.0316 µM)
9540 nM: IC50 (second compound 1 µM)
> 10000 nM: IC50 (second compound 0.316 µM)
8200 nM: IC50 (second compound 10 µM)
inactive: viability, T/C [1] 130% | viability, T/C [2] 118% | viability, T/C [3] 135% | viability, T/C [4] 115% | viability, T/C [5] 114% | viability, T/C [6] 39.2% | viability, T/C [7] 103% | viability, T/C [8] 112% | viability, T/C [9] 97.9% | viability, T/C [10] 106% | viability, T/C [11] 95.5% | viability, T/C [12] 43.6% | viability, T/C [13] 122% | viability, T/C [14] 126% | viability, T/C [15] 102% | viability, T/C [16] 103% | viability, T/C [17] 129% | viability, T/C [18] 51.6% | viability, T/C [19] 80.9% | viability, T/C [20] 71.9% | viability, T/C [21] 84.2% | viability, T/C [22] 76% | viability, T/C [23] 92.2% | viability, T/C [24] 48.8% | viability, T/C [25] 39.3% | viability, T/C [26] 48.6% | viability, T/C [27] 43.1% | viability, T/C [28] 56.4% | viability, T/C [29] 56.2% | viability, T/C [30] 31.1% | viability, T/C [31] 73.4% | viability, T/C [32] 65.1% | viability, T/C [33] 78.5% | viability, T/C [34] 70.4% | viability, T/C [35] 83.5% | viability, T/C [36] 45.1%

Cc1[nH]c2ccccc2c1CCNCc1ccc(/C=C/C(=O)NO)cc1 + Cc1[nH]c2ccc(F)cc2c1-c1nc2c3cccnc3c3ncccc3c2[nH]1
< 0.999 nM: IC50 (second compound 3.16 µM)
62.9 nM: IC50 (second compound 0.0316 µM)
inactive: viability, T/C (second compound 0.0316 µM, first compound 0.000999 µM) 110% | viability, T/C (second compound 0.0316 µM, first compound 0.00316 µM) 115% | viability, T/C (second compound 0.0316 µM, first compound 0.00999 µM) 131% | viability, T/C [1] 82.5% | viability, T/C (second compound 0.0316 µM, first compound 0.0999 µM) 28% | viability, T/C (second compound 0.1 µM, first compound 0.000999 µM) 111% | viability, T/C (second compound 0.1 µM, first compound 0.00316 µM) 108% | viability, T/C (second compound 0.1 µM, first compound 0.00999 µM) 103% | viability, T/C [7] 77.8% | viability, T/C (second compound 0.1 µM, first compound 0.0999 µM) 31.4% | viability, T/C (second compound 0.316 µM, first compound 0.000999 µM) 107% | viability, T/C (second compound 0.316 µM, first compound 0.00316 µM) 108% | viability, T/C (second compound 0.316 µM, first compound 0.00999 µM) 90.2% | viability, T/C [13] 73.5% | viability, T/C (second compound 0.316 µM, first compound 0.0999 µM) 30.1% | viability, T/C (second compound 1 µM, first compound 0.000999 µM) 71.8% | viability, T/C (second compound 1 µM, first compound 0.00316 µM) 58% | viability, T/C (second compound 1 µM, first compound 0.00999 µM) 62.6% | viability, T/C [19] 47.1% | viability, T/C (second compound 1 µM, first compound 0.0999 µM) 22.4% | viability, T/C (second compound 3.16 µM, first compound 0.000999 µM) 32.2% | viability, T/C (second compound 3.16 µM, first compound 0.00316 µM) 32.8% | viability, T/C (second compound 3.16 µM, first compound 0.00999 µM) 41.1% | viability, T/C [25] 32.7% | viability, T/C (second compound 3.16 µM, first compound 0.0999 µM) 25.1% | viability, T/C (second compound 10 µM, first compound 0.000999 µM) 84.1% | viability, T/C (second compound 10 µM, first compound 0.00316 µM) 64.8% | viability, T/C (second compound 10 µM, first compound 0.00999 µM) 79.1% | viability, T/C [31] 48.3% | viability, T/C (second compound 10 µM, first compound 0.0999 µM) 33.6%
23.9 nM: IC50 (second compound 1 µM)
39.1 nM: IC50 (second compound 10 µM)
58 nM: IC50 (second compound 0.316 µM)
63 nM: IC50 (second compound 0.1 µM)
active: viability, T/C [3] 0.83% | viability, T/C [9] 1.46% | viability, T/C [15] 0.7% | viability, T/C [21] 0.79% | viability, T/C [27] 0.97% | viability, T/C [33] 0.53%

O=C(NO)c1cnc(N2CCN(S(=O)(=O)c3ccc4ccccc4c3)CC2)nc1 + Cc1[nH]c2ccc(F)cc2c1-c1nc2c3cccnc3c3ncccc3c2[nH]1
127 nM: IC50 (second compound 10 µM)
209 nM: IC50 (second compound 0.316 µM)
< 31.6 nM: IC50 (second compound 3.16 µM)
187 nM: IC50 (second compound 0.0316 µM)
123 nM: IC50 (second compound 1 µM)
active: viability, T/C [4] 0.4% | viability, T/C [5] 0.21% | viability, T/C [6] 0.21% | viability, T/C [10] 0.48% | viability, T/C [11] 0.3% | viability, T/C [12] 0.23% | viability, T/C [16] 0.67% | viability, T/C [17] 0.25% | viability, T/C [18] 0.34% | viability, T/C [22] 1% | viability, T/C [23] 0.31% | viability, T/C [24] 0.56% | viability, T/C [28] 0.37% | viability, T/C [29] 0.44% | viability, T/C [30] 0.51% | viability, T/C [34] 1.72% | viability, T/C [35] 0.78% | viability, T/C [36] 0.43%
248 nM: IC50 (second compound 0.1 µM)
inactive: viability, T/C [1] 120% | viability, T/C [2] 80.4% | viability, T/C [3] 25.1% | viability, T/C [7] 99.4% | viability, T/C [8] 97.2% | viability, T/C [9] 37.5% | viability, T/C [13] 94.3% | viability, T/C [14] 90.2% | viability, T/C [15] 27.6% | viability, T/C [19] 62.3% | viability, T/C [20] 52.7% | viability, T/C [21] 28.8% | viability, T/C [25] 39.8% | viability, T/C [26] 29.3% | viability, T/C [27] 19.3% | viability, T/C [31] 67.4% | viability, T/C [32] 54.9% | viability, T/C [33] 27.5%
